Reference: ChEMBL document CHEMBL1137470, “Pyrrolidinones as potent functional antagonists of the human melanocortin-4 receptor” (Bioorg Med Chem Lett, 2007)

Legend:
[1] = Permeability from basolateral to apical side of the Caco-2 cell membrane; type: ADME, cell-based; settings: human, read-out: permeability
[2] = Drug level in rat brain at 5 mg/kg, iv after 1 hr; type: ADME, organism-based; parameters: dose 5 mg/kg, route intravenous; settings: read-out: Drug uptake
[3] = Plasma clearance in mouse at 5 mg/kg, iv; type: ADME, organism-based; parameters: dose 5 mg/kg, route intravenous
[4] = Volume of distribution in mouse at 5 mg/kg, iv; type: ADME, organism-based; parameters: dose 5 mg/kg, route intravenous; settings: in vivo
[5] = Half life in mouse at 5 mg/kg, iv; type: ADME, organism-based; parameters: dose 5 mg/kg, route intravenous; settings: in vivo
[6] = AUC in mouse at 5 mg/kg, iv; type: ADME, organism-based; parameters: dose 5 mg/kg, route intravenous; settings: plasma
[7] = Drug level in mouse brain at 5 mg/kg, iv after 1 hr; type: ADME, organism-based; parameters: dose 5 mg/kg, route intravenous; settings: read-out: Drug uptake
[8] = Drug level in mouse brain at 5 mg/kg, iv after 4 hrs; type: ADME, organism-based; parameters: dose 5 mg/kg, route intravenous; settings: read-out: Drug uptake
[9] = Ratio of drug level in brain to plasma in rat at 5 mg/kg, iv after 1 hr; type: ADME, organism-based; parameters: dose 5 mg/kg, route intravenous; settings: read-out: BPR
[10] = Cmax in mouse at 10 mg/kg, po after 2 hrs; type: ADME, organism-based; parameters: dose 10 mg/kg, route oral; settings: in vivo
[11] = Tmax in mouse at 10 mg/kg, po; type: ADME, organism-based; parameters: dose 10 mg/kg, route oral; settings: in vivo
[12] = AUC in mouse at 10 mg/kg, po; type: ADME, organism-based; parameters: dose 10 mg/kg, route oral; settings: plasma
[13] = Oral bioavailability in mouse at 10 mg/kg, po; type: ADME, organism-based; settings: in vivo
[14] = Lipophilicity, log D by shake-flask method; type: physicochemical; settings: octanol/water
[15] = Ratio of drug level in brain to plasma in mouse at 5 mg/kg, iv after 1 hr; type: ADME, organism-based; parameters: dose 5 mg/kg, route intravenous; settings: read-out: BPR
[16] = Apparent permeability across Caco-2 cells; type: ADME, cell-based; settings: human
[17] = Ratio of drug level in brain to plasma in mouse at 5 mg/kg, iv after 4 hrs; type: ADME, organism-based; parameters: dose 5 mg/kg, route intravenous; settings: read-out: BPR

Papp B→A [1] | concentration at 1 h [2] | clearance [3] | Vd [4] | half-life [5] | AUC [6] | concentration at 1 h [7] | concentration at 4 h [8] | Kp at 1 h [9] | Cmax [10] | Tmax [11] | AUC [12] | bioavailability [13] | logD [14] | Kp at 1 h [15] | Papp [16] | Kp at 4 h [17] | SMILES
6.7 ×10⁻⁶ cm/s | 81 ng/g | 15 mL/min/kg | 13 L/kg | 10 h | 9980 ng·h/mL | 63 ng/g | 53 ng/g | 0.47 | 552 ng/mL | 2 h | 1950 ng·h/mL | 19.5% | 1.8 | 0.14 | 2 ×10⁻⁶ cm/s | – | CC(C)C[C@H](NCCN)c1cccc(F)c1N1CCN(C(=O)[C@@H](Cc2ccc(Cl)cc2Cl)N2CCCC2=O)CC1
– | – | – | – | – | – | – | – | – | – | – | – | – | – | – | – | 0.23 | CC(C)C[C@H](NCCN)c1cc(F)ccc1N1CCN(C(=O)[C@@H](Cc2ccc(Cl)cc2Cl)N2CCCC2=O)CC1
